Measured values from the NIST ThermoML archive (doi:10.1016/j.fluid.2007.12.005).
Values joined by “and” are separate entries in the source; they are usually repeats but may differ in a detail not shown here. Identical values can stand only once. ± gives the expanded uncertainty stated by the source.

Settings: 313.15 K; Liquid; Closed cell (Static) method

Row | vapor or sublimation pressure | SMILES
1 | 12.31 ± 0.056 kPa and 12.32 ± 0.056 kPa | CCCCCCC [heptane]
2 | 44.96 ± 0.24 kPa and 44.95 ± 0.24 kPa | C=CCCCC [hex-1-ene]
3 | 31.64 ± 0.12 kPa and 31.65 ± 0.12 kPa | CCOC(C)(C)C [2-ethoxy-2-methylpropane]
